Residues, ends and D or L forms follow the SMILES beside them. *: point of attachment. X51 = O=C(O)[C@@H](CC(=O)*)SCc1ccc([N+](=O)[O-])cc1; X27 = O=C(O)[C@H](CC(=O)*)SCc1ccc([N+](=O)[O-])cc1; X46 = CC(C)(C)c1ccc(CS[C@@H](CC(=O)*)C(=O)O)cc1; X32 = O=C(O)[C@H](CC(=O)*)SCc1ccc(C(F)(F)F)cc1; X62 = Cc1cc(C)c(CS[C@@H](CC(=O)*)C(=O)O)c(C)c1; X72 = O=C(O)[C@@H](CC(=O)*)SCc1cccc2ccccc12; X74 = O=C(O)[C@@H](CC(=O)*)SCc1ccc(Cl)cc1Cl; X11 = O=C(O)[C@H](CC(=O)*)SCc1cccc2ccccc12; X23 = O=C(O)[C@@H](CC(=O)*)Sc1cccc2ccccc12; X29 = COc1ccc(S[C@@H](CC(=O)*)C(=O)O)cc1OC; X3 = O=C(O)[C@H](CC(=O)*)Sc1ccc(Cl)c(Cl)c1; X36 = O=C(O)[C@@H](CC(=O)*)Sc1ccc2ccccc2c1; X58 = O=C(O)[C@@H](CC(=O)*)Sc1cccc(Cl)c1Cl; X33 = Cc1ccc(S[C@@H](CC(=O)*)C(=O)O)cc1C; X57 = O=C(O)[C@@H](CC(=O)*)Sc1ccc(Cl)cc1; X19 = O=C(O)[C@H](CC(=O)*)Sc1ccc(Cl)cc1; X69 = O=C(O)[C@@H](CC(=O)*)Sc1ccccc1; X12 = O=C(O)C(CC(=O)*)SCCc1cnccn1; X44 = CC(CC(=O)*)Sc1ccc2ccccc2c1; X4 = O=C(O)C(CC(=O)*)Cc1ccccc1; Bz = O=C(c1ccccc1)*
What follows are compounds tested against NAD-dependent protein deacylase sirtuin-5, mitochondrial (Homo sapiens, UniProt Q9NXA8) (assay: Inhibition of human recombinant N-terminal Strep2-tagged SIRT5 expressed in Escherichia coli BL21 (DE3) using Abz-GVLK(glutaryl)AY(NO2)GV-NH2 as substrate in presence of NAD+ by fluorescence assay).
NAD-dependent protein deacylase sirtuin-5, mitochondrial, sequence (Q9NXA8 whole entry): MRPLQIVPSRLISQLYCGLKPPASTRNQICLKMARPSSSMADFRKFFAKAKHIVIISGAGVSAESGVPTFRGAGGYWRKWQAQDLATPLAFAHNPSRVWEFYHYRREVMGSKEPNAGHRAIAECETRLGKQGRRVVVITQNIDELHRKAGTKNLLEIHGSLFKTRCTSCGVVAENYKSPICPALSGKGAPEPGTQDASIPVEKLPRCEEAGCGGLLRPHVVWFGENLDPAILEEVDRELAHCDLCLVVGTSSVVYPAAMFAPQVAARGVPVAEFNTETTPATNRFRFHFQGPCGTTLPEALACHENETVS
Compound `CC(C)C[C@H](NC(=O)[C@@H](NC(=O)CNC(=O)c1ccccc1)C(C)C)C(=O)N[C@@H](CCCCNC(=O)C[C@@H](Sc1cccc2ccccc12)C(=O)O)C(=O)N[C@@H](CCC(=O)O)C(=O)N[C@@H](Cc1ccc(O)cc1)C(=O)NCC(=O)N[C@H](C(N)=O)C(C)C` (Bz-GVLK(X23)EYGV-NH2) has an IC50 of 2.2 µM. In the case of `CC(C)C[C@H](NC(=O)[C@@H](NC(=O)CNC(=O)c1ccccc1)C(C)C)C(=O)N[C@@H](CCCCNC(=O)C[C@@H](Sc1cccc(Cl)c1Cl)C(=O)O)C(=O)N[C@@H](CCC(=O)O)C(=O)N[C@@H](Cc1ccc(O)cc1)C(=O)NCC(=O)N[C@H](C(N)=O)C(C)C` (Bz-GVLK(X58)EYGV-NH2), the IC50 is reported as 3.39 µM. Compound `CC(C)C[C@H](NC(=O)[C@@H](NC(=O)CNC(=O)c1ccccc1)C(C)C)C(=O)N[C@@H](CCCCNC(=O)C[C@H](SCc1ccc(C(F)(F)F)cc1)C(=O)O)C(=O)N[C@@H](CCC(=O)O)C(=O)N[C@@H](Cc1ccc(O)cc1)C(=O)NCC(=O)N[C@H](C(N)=O)C(C)C` (Bz-GVLK(X32)EYGV-NH2) has an IC50 of 0.803 µM. In the case of `C=CCN1C(=O)/C(=C/c2ccc(-c3cccc(Cl)c3Cl)o2)C(=O)NC1=S`, the IC50 is reported as 25.2 µM. With `Cc1ccc(S[C@@H](CC(=O)NCCCC[C@H](NC(=O)[C@H](CC(C)C)NC(=O)[C@@H](NC(=O)CNC(=O)c2ccccc2)C(C)C)C(=O)N[C@@H](CCC(=O)O)C(=O)N[C@@H](Cc2ccc(O)cc2)C(=O)NCC(=O)N[C@H](C(N)=O)C(C)C)C(=O)O)cc1C` (Bz-GVLK(X33)EYGV-NH2) the IC50 was 0.0461 µM. For `CC(C)C[C@H](NC(=O)[C@@H](NC(=O)CNC(=O)c1ccccc1)C(C)C)C(=O)N[C@@H](CCCCNC(=O)CC(C)Sc1ccc2ccccc2c1)C(=O)N[C@@H](CCC(=O)O)C(=O)N[C@@H](Cc1ccc(O)cc1)C(=O)NCC(=O)N[C@H](C(N)=O)C(C)C` (stereo partly drawn) (Bz-GVLK(X44)EYGV-NH2), the IC50 was > 40 µM. `CC(C)C[C@H](NC(=O)[C@@H](NC(=O)CNC(=O)c1ccccc1)C(C)C)C(=O)N[C@@H](CCCCNC(=O)C[C@H](SCc1cccc2ccccc12)C(=O)O)C(=O)N[C@@H](CCC(=O)O)C(=O)N[C@@H](Cc1ccc(O)cc1)C(=O)NCC(=O)N[C@H](C(N)=O)C(C)C` (Bz-GVLK(X11)EYGV-NH2) was tested, and the IC50 was 0.0154 µM and the Ki was 0.007 µM. `CC(C)C[C@H](NC(=O)[C@@H](NC(=O)CNC(=O)c1ccccc1)C(C)C)C(=O)N[C@@H](CCCCNC(=O)C[C@H](Sc1ccc(Cl)c(Cl)c1)C(=O)O)C(=O)N[C@@H](CCC(=O)O)C(=O)N[C@@H](Cc1ccc(O)cc1)C(=O)NCC(=O)N[C@H](C(N)=O)C(C)C` (Bz-GVLK(X3)EYGV-NH2) showed an IC50 of 0.0459 µM and a Ki of 0.023 µM. Work on `Cc1cc(C)c(CS[C@@H](CC(=O)NCCCC[C@H](NC(=O)[C@H](CC(C)C)NC(=O)[C@@H](NC(=O)CNC(=O)c2ccccc2)C(C)C)C(=O)N[C@@H](CCC(=O)O)C(=O)N[C@@H](Cc2ccc(O)cc2)C(=O)NCC(=O)N[C@H](C(N)=O)C(C)C)C(=O)O)c(C)c1` (Bz-GVLK(X62)EYGV-NH2) yielded an IC50 of 5.2 µM. `O=C(C[C@H](Sc1ccc2ccccc2c1)C(=O)O)NCc1ccccc1` showed an IC50 of 124 µM. For `CC(C)C[C@H](NC(=O)[C@@H](NC(=O)CNC(=O)c1ccccc1)C(C)C)C(=O)N[C@@H](CCCCNC(=O)C[C@@H](Sc1ccc2ccccc2c1)C(=O)O)C(=O)N[C@@H](CCC(=O)O)C(=O)N[C@@H](Cc1ccc(O)cc1)C(=O)NCC(=O)N[C@H](C(N)=O)C(C)C` (Bz-GVLK(X36)EYGV-NH2), the IC50 was 1.18 µM. With `CC(C)C[C@H](NC(=O)[C@@H](NC(=O)CNC(=O)c1ccccc1)C(C)C)C(=O)N[C@@H](CCCCNC(=O)C[C@H](SCc1ccc([N+](=O)[O-])cc1)C(=O)O)C(=O)N[C@@H](CCC(=O)O)C(=O)N[C@@H](Cc1ccc(O)cc1)C(=O)NCC(=O)N[C@H](C(N)=O)C(C)C` (Bz-GVLK(X27)EYGV-NH2) the IC50 was 3.73 µM. Work on `O=C(C[C@H](Sc1ccc2ccccc2c1)C(=O)O)NCCCc1ccccc1` yielded an IC50 of 72.6 µM. `CC(C)C[C@H](NC(=O)[C@@H](NC(=O)CNC(=O)c1ccccc1)C(C)C)C(=O)N[C@@H](CCCCNC(=O)C[C@@H](SCc1ccc([N+](=O)[O-])cc1)C(=O)O)C(=O)N[C@@H](CCC(=O)O)C(=O)N[C@@H](Cc1ccc(O)cc1)C(=O)NCC(=O)N[C@H](C(N)=O)C(C)C` (Bz-GVLK(X51)EYGV-NH2) was tested, and the IC50 was 4.03 µM. With `CNC(=O)c1cccc(NC(=O)C[C@H](Sc2ccc3ccccc3c2)C(=O)O)c1` the IC50 was 90 µM. `CC(C)C[C@H](NC(=O)[C@@H](NC(=O)CNC(=O)c1ccccc1)C(C)C)C(=O)N[C@@H](CCCCNC(=O)C[C@@H](Sc1ccc(Cl)cc1)C(=O)O)C(=O)N[C@@H](CCC(=O)O)C(=O)N[C@@H](Cc1ccc(O)cc1)C(=O)NCC(=O)N[C@H](C(N)=O)C(C)C` (Bz-GVLK(X57)EYGV-NH2) showed an IC50 of 1.61 µM. `CC(C)C[C@H](NC(=O)[C@@H](NC(=O)CNC(=O)c1ccccc1)C(C)C)C(=O)N[C@@H](CCCCNC(=O)C[C@@H](SCc1cccc2ccccc12)C(=O)O)C(=O)N[C@@H](CCC(=O)O)C(=O)N[C@@H](Cc1ccc(O)cc1)C(=O)NCC(=O)N[C@H](C(N)=O)C(C)C` (Bz-GVLK(X72)EYGV-NH2) was tested, and the IC50 was 0.207 µM. `CC(C)C[C@H](NC(=O)[C@@H](NC(=O)CNC(=O)c1ccccc1)C(C)C)C(=O)N[C@@H](CCCCNC(=O)C[C@H](SCc1ccc(C(C)(C)C)cc1)C(=O)O)C(=O)N[C@@H](CCC(=O)O)C(=O)N[C@@H](Cc1ccc(O)cc1)C(=O)NCC(=O)N[C@H](C(N)=O)C(C)C` (Bz-GVLK(X46)EYGV-NH2) showed an IC50 of 0.793 µM. `CC(C)C[C@H](NC(=O)[C@@H](NC(=O)CNC(=O)c1ccccc1)C(C)C)C(=O)N[C@@H](CCCCNC(=O)C[C@@H](Sc1ccccc1)C(=O)O)C(=O)N[C@@H](CCC(=O)O)C(=O)N[C@@H](Cc1ccc(O)cc1)C(=O)NCC(=O)N[C@H](C(N)=O)C(C)C` (Bz-GVLK(X69)EYGV-NH2) showed an IC50 of 1.8 µM. For `COc1ccc(S[C@@H](CC(=O)NCCCC[C@H](NC(=O)[C@H](CC(C)C)NC(=O)[C@@H](NC(=O)CNC(=O)c2ccccc2)C(C)C)C(=O)N[C@@H](CCC(=O)O)C(=O)N[C@@H](Cc2ccc(O)cc2)C(=O)NCC(=O)N[C@H](C(N)=O)C(C)C)C(=O)O)cc1OC` (Bz-GVLK(X29)EYGV-NH2), the IC50 was 0.326 µM. `CC(C)C[C@H](NC(=O)[C@@H](NC(=O)CNC(=O)c1ccccc1)C(C)C)C(=O)N[C@@H](CCCCNC(=O)C[C@@H](SCc1ccc(Cl)cc1Cl)C(=O)O)C(=O)N[C@@H](CCC(=O)O)C(=O)N[C@@H](Cc1ccc(O)cc1)C(=O)NCC(=O)N[C@H](C(N)=O)C(C)C` (Bz-GVLK(X74)EYGV-NH2) gave an IC50 of 0.432 µM. `CC(C)C[C@H](NC(=O)[C@@H](NC(=O)CNC(=O)c1ccccc1)C(C)C)C(=O)N[C@@H](CCCCNC(=O)CC(Cc1ccccc1)C(=O)O)C(=O)N[C@@H](CCC(=O)O)C(=O)N[C@@H](Cc1ccc(O)cc1)C(=O)NCC(=O)N[C@H](C(N)=O)C(C)C` (stereo partly drawn) (Bz-GVLK(X4)EYGV-NH2) was tested, and the IC50 was 1.12 µM and the Ki was 0.263 µM. Compound `CC(C)C[C@H](NC(=O)[C@@H](NC(=O)CNC(=O)c1ccccc1)C(C)C)C(=O)N[C@@H](CCCCNC(=O)C[C@H](Sc1ccc(Cl)cc1)C(=O)O)C(=O)N[C@@H](CCC(=O)O)C(=O)N[C@@H](Cc1ccc(O)cc1)C(=O)NCC(=O)N[C@H](C(N)=O)C(C)C` (Bz-GVLK(X19)EYGV-NH2) has an IC50 of 0.102 µM. For `CC(C)C[C@H](NC(=O)[C@@H](NC(=O)CNC(=O)c1ccccc1)C(C)C)C(=O)N[C@@H](CCCCNC(=O)CC(SCCc1cnccn1)C(=O)O)C(=O)N[C@@H](CCC(=O)O)C(=O)N[C@@H](Cc1ccc(O)cc1)C(=O)NCC(=O)N[C@H](C(N)=O)C(C)C` (stereo partly drawn) (Bz-GVLK(X12)EYGV-NH2), the IC50 was 22.8 µM and the Ki was 0.0035 to 0.011 µM.

From ChEMBL document CHEMBL4033793, “Potent and Selective Inhibitors of Human Sirtuin 5” (J Med Chem, 2018)
